Data taken from US11458153B2, “Drug delivery composition comprising a self-assembled gelator” (The Brigham and Women's Hospital, Inc., priority 2008, dated 2022).

Columns and labels:
[1] = Dye-encapsulated nanofibers in absence of synovial fluid (PBS); assay type: physicochemical; conditions: DiD-encapsulated fibers in PBS
Description: In vitro. […] Fibers were isolated by repetitive centrifugation and washing steps.

[2] = DiD-encapsulated fibers, synovial fluid, 37° C.
Description: In vitro. […] Fibers were incubated with synovial fluid at 37° C. that was extracted from human arthritic joints (inflamed).

[3] = tested on: arthritis bearing mouse joints (ankles and knees); conditions: direct injection into joints, sectioned after 8 days, fluorescence microscopy
Description: In vivo: DiD encapsulated nanofiber gels (salicin-deconate nanofibers, prepared as above), were directly injected into the arthritis bearing mouse joints (ankles and knees) to examine the retention of nanofibers within the joints. After 8 days, ankles and knees were sectioned and imaged under fluorescence microscopy to examine the presence of nanofibers.
In vivo: DiD encapsulated nanofiber gels were directly injected into the arthritis bearing mouse joints (ankles and knees) to examine the retention of nanofibers within the joints. After 8 days, ankles and knees were sectioned and imaged under fluorescence microscopy to examine the presence of nanofibers.

[4] = Gelation ability of polyol amphiphiles in water and organic solvents; assay type: physicochemical; set-up: key: G = gel; P = precipitate; S = soluble; I = insoluble; conditions: solvent CHCl3
Description: (§1) Examples of suitable solvents include water, salt water (such as a NaCl solution), different […] such as TRISZMA buffers, and alkaline and acidic solutions. In addition to water-based solutions, the compounds can gel various aromatic and non-aromatic organic solvents, such as benzene, toluene, hexane, and acetonitrile. All the gels obtained in Table 7 were thermally reversible. Above their gelation temperature, the gels dissolved in solvent, but could be returned to their original gel state upon cooling.

[5] = as above; assay type: physicochemical; set-up: key: G = stable gel at room temperature; P = precipitate; Sol = soluble
Description: as §1

Compound: CCCCCCCCCC(=O)OC[C@H]1O[C@@H](Oc2ccccc2CO)[C@H](O)[C@@H](O)[C@@H]1O [Salicin-deconate]
- stability of nanofibers in absence of synovial fluid [1]: stable (in PBS) for months
- period of slow degradation of fibers by enzymes [2]: 15 days
- presence of nanofibers in joints [3]: localized within the joints

Compound: CCCCCCCCCCCC(=O)NC(CO)(CO)CO [polyol-12]
- Gelation ability [4]: P
- Gelation ability ([5]; solvent 1,4-dioxane): Sol
- Gelation ability ([5]; solvent CCl4): G
- Gelation ability ([5]; solvent CH3CN): G
- Gelation ability ([5]; solvent DMSO): Sol
- Gelation ability ([5]; solvent NaCl (40 mM)): G
- Gelation ability ([5]; solvent TRIS (50 mM)): G
- Gelation ability ([5]; solvent acetone): Sol
- Gelation ability ([5]; solvent acidic (pH < 3)): G
- Gelation ability ([5]; solvent basic (pH > 12)): G
- Gelation ability ([5]; solvent benzene): G
- Gelation ability ([5]; solvent cyclohexane): G
- Gelation ability ([5]; solvent toluene): G
- Gelation ability ([5]; solvent water): G
